Results: patent US8148056B2, “Methods of identifying modulators of GPR81 receptors” (Janssen Pharmaceutica NV, priority 2006, dated 2012)
Several values for one entry are separate records, joined by “and”; a condition that tells them apart may be missing. Equal values may be shown once. Entries after “also recorded” stand apart in the source; their conditions may differ. Where a name gives a salt, the structure may show the parent alone. Read-outs that look alike come from different tables or passages of the source.

What was measured:
[1] = target: T1, GPR81 (Homo sapiens, UniProt Q9BXC0); experiment: GPR81 agonist ligand activity, GTPγS binding assay (species of receptor not given); format: biochemical; set-up: expressed in transfected cells; host or cells: GPR81-expressing cells / membranes (CHO); conditions: for GPR81 agonist activity: yes/no; for stimulation of 35S-GTPγS binding in GPR81-expressing cells / cell membranes: concentration not given
Target sequence in this assay (Q9BXC0 whole entry, species assumed): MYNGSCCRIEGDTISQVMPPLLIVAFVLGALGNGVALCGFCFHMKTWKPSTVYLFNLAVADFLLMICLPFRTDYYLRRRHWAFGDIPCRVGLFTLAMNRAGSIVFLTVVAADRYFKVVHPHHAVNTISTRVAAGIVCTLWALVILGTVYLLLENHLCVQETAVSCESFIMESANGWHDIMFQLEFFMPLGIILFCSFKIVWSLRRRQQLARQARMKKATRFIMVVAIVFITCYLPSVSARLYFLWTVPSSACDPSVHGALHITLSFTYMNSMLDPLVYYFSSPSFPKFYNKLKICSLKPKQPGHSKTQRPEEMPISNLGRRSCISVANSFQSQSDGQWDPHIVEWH

[2] = cAMP inhibition-linked β-gal assay, control cells; format: cell-based
[3] = target: T2, HM74A (Homo sapiens, UniProt Q8TDS4); experiment: 35S-GTPγS binding assay, HM74A-expressing CHO membranes; format: biochemical
T2 construct: expressed in transfected cells; host or cells: CHO cells, membranes
T2 sequence (Q8TDS4 whole entry): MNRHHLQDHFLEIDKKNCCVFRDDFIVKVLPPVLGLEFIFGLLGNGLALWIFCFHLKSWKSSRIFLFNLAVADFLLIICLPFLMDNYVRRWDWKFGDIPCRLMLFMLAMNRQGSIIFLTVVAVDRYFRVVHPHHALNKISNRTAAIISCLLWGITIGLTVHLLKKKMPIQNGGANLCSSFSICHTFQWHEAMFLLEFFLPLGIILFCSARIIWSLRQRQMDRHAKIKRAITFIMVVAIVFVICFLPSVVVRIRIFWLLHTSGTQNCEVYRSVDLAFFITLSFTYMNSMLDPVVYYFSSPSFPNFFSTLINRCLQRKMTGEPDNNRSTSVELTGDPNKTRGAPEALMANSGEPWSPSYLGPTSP

[4] = target: T1, GPR81; experiment: 35S-GTPγS binding assay, membranes of CHO cells expressing human GPR81; format: biochemical; set-up: expressed in transfected cells; host or cells: CHO-K1 (transient, pCIneo), membranes
Target sequence in this assay (Q9BXC0 whole entry): as the sequence (Q9BXC0 whole entry, species assumed) above

[5] = tested on: HM74; experiment: cAMP inhibition-linked β-gal assay, HM74 expressing cells; format: cell-based
[6] = 35S-GTPγS binding assay, control membranes; format: biochemical, Chinese hamster; conditions: negative control
[7] = target: T1, GPR81; conditions: 5 μM forskolin
Source text: A β-galactosidase (β-gal) assay system was also used to characterize the GPR81 activation in SK-N-MC/CRE-β-gal cells stably expressing human GPR81. GPCRs that couple with Gi proteins, upon activation by agonist, inhibit cAMP accumulation, and therefore inhibit forkolin-stimulated β-gal expression. A cell line stably expressing human GPR81 was established from an SK-N-MC/CRE-β-gal cell line, which harbors a β-galactosidase β-gal) gene under the control of a cAMP-responsive element (CRE). SK-N-MC/CRE-β-gal cells were transfected with the above-described human GPR81-pCIneo construct using LipofectAmine as the transfection reagent. Two days after transfection, the cells were split into new culture dishes at different densities and grown under selection of G418 for three weeks. Single isolated clones were isolated and tested for responsiveness to L-lactate stimulation. […] The β-gal activity was assayed as described (Liu et al., Mol. Pharmacol., Vol. 67, pp. 231-240 (2005)).
Target sequence in this assay (Q9BXC0 whole entry): as the sequence (Q9BXC0 whole entry, species assumed) above

[8] = target: T3, HM74 (Homo sapiens, UniProt P49019); experiment: 35S-GTPγS binding assay, HM74-expressing CHO membranes; format: biochemical
T3 construct: expressed in transfected cells; host or cells: CHO cells, membranes
T3 sequence (P49019 whole entry): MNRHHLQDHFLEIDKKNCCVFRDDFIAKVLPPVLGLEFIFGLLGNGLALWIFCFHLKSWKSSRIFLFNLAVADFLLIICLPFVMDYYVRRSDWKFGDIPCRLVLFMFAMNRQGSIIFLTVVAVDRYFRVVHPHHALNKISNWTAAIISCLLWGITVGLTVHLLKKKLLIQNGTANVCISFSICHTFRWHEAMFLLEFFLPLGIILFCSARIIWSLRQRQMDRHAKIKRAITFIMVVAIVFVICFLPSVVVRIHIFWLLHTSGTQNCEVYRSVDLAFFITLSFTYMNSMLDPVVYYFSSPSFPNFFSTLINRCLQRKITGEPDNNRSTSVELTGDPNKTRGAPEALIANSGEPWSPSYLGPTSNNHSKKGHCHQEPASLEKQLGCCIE

[9] = target: T1, GPR81; conditions: Tunaru et al., Nat. Med. 2003; cited from earlier work
Target sequence in this assay (Q9BXC0 whole entry, species assumed): as the sequence (Q9BXC0 whole entry, species assumed) above

[10] = tested on: rat GPR81L; experiment: GTPγS binding assay, rat GPR81L; format: biochemical; conditions: FIG. 19
Source text: (§1) The longer polypeptide sequence was termed rat GP[…]; the shorter polypeptide sequence was termed rat GP[…]. […] The forward primer, 5' [NT] ID NO:7), and the reverse primer, [NT] […] The forward primer, [NT] ID NO:9), and reverse primer, [NT]

[11] = target: T4, mouse GPR81S (Mus musculus, UniProt Q8C131); experiment: GTPγS binding assay, mouse GPR81S; format: biochemical; conditions: FIG. 19
T4 construct: expressed in transfected cells; host or cells: CHO-K1 (transient, pCIneo), membranes
T4 sequence (Q8C131 1-343): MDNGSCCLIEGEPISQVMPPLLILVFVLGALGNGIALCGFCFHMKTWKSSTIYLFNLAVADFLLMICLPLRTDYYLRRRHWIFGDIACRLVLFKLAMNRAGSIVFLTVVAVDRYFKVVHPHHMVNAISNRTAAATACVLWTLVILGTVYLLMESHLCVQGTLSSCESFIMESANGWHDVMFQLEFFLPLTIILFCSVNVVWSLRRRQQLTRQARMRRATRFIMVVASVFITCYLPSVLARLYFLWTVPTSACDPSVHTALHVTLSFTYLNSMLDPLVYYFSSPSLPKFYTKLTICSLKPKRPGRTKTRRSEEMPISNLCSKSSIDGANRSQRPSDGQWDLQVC
Source text: (§2) The longer polypeptide sequence was termed mouse GP[…]; the shorter polypeptide sequence was termed mouse GP[…].

[12] = tested on: porcine GPR81; experiment: GTPγS binding assay, porcine GPR81; format: biochemical; conditions: FIG. 20
[13] = tested on: bovine GPR81; experiment: GTPγS binding assay, bovine GPR81; format: biochemical; conditions: FIG. 20
Source text: TAA GTC ACC AAT CC 3′ (SEQ ID NO:12), were designed based on the identified bovine GPR81 coding sequence and were used to amplify the bovine GPR81 coding region using bovine genomic DNA as template.

[14] = target: T5, mouse GPR81L (Mus musculus, UniProt Q8C131); experiment: GTPγS binding assay, mouse GPR81L; format: biochemical; conditions: FIG. 19
T5 construct: expressed in transfected cells; host or cells: CHO-K1 (transient, pCIneo), membranes
T5 sequence (Q8C131 with tags, fused parts or gaps): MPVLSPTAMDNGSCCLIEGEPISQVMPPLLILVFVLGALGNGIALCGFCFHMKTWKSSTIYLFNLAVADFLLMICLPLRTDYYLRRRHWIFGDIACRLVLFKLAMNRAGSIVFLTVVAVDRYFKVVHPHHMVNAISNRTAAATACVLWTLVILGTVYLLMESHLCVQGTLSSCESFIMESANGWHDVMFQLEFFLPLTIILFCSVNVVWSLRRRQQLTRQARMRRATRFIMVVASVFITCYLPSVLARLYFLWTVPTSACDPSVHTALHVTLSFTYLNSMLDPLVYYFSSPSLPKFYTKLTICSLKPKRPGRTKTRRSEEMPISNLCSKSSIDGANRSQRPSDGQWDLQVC
Source text: as §2

[15] = tested on: rat GPR81S; experiment: GTPγS binding assay, rat GPR81S; format: biochemical; conditions: FIG. 19
Source text: as §1

[16] = tested on: dog GPR81; experiment: GTPγS binding assay, dog GPR81; format: biochemical; conditions: FIG. 20
[17] = tested on: monkey GPR81; experiment: GTPγS binding assay, monkey GPR81; format: biochemical; conditions: FIG. 20
Source text: The forward primer, 5′ ACTAGAGAATTCGCCACCATGTACAACGGGTCGTGCTGCCGCAT 3′ (SEQ ID NO:15), and the reverse primer, 5′ ATGATAGCGGCCGCTCAGTGCCACTCAACAGTGTGGGGATC 3′ (SEQ ID NO:16), were designed based on the identified monkey GPR81 coding sequence and were used to amplify the monkey GPR81 coding region using monkey genomic DNA as template.

CC(Cl)(Cl)C(=O)[O-].[Na+] [2,2-dichloropropionic acid, sodium salt]
GPR81 agonist activity [1]: no

CC(Cl)C(=O)Cl (centres unmarked) [2-chloropropinoyl chloride]
GPR81 agonist activity [1]: showed GPR81-agonist activity and yes

CC(Cl)C(=O)[O-].[Na+] (centres unmarked) [2-chloropropionic acid, sodium salt]
GPR81 agonist activity ([1]; listed as 2-chloropropinoate, sodium salt): showed GPR81-agonist activity
GPR81 agonist activity ([1]; sodium salt): yes

C[C@@H](O)C(=O)O [D-lactate]
efficacy as GPR81 agonist (comparison) [1]: less efficacious
GPR81 agonist activity [1]: demonstrated significant GPR81 agonist activity and yes

N[C@@H](CCO)C(=O)O [L-homoserine]
GPR81 agonist activity [1]: none of glucose, L-homoserine, or any L-amino acids tested activated GPR81 and no

C[C@H](O)C(=O)O [L-lactate]
inhibition of forskolin-induced β-gal expression in control cells not expressing a GPCR [2]: did not inhibit
inhibition of forskolin-induced β-gal expression in control cells not expressing a GPCR ([2]; listed as lactate): not in cells not expressing GPR81
activation of HM74A-expressing membranes (35S-GTPγS binding) [3]: did not activate
EC50 ([4]; CHO membranes, read-out: EC50, activation of human GPR81 (35S-GTPγS binding)): ~5 mM and 5 mM
receptor activation of GPR81 ([4]; at 1 mM concentration): capable of stimulating detectable receptor activation
inhibition of forskolin-induced β-gal expression in HM74 expressing cells [5]: did not inhibit
35S-GTPγS binding stimulation in control cells/membranes not expressing GPR81 or any GPCR [6]: did not activate
inhibition of forskolin-induced β-gal expression in GPR81-expressing cells [7]: inhibits forskolin-induced β-galactosidase expression
EC50 ([7]; read-out: EC50, inhibition of forskolin-induced β-gal expression in GPR81-expressing cells): ~3 mM
activation of HM74-expressing membranes (35S-GTPγS binding) [8]: did not activate

CC(=O)O [acetate]
GPR81 agonist activity [1]: neither acetate, pyruvate, formiate, nor glyoxylate activated GPR81 and no

O=C(O)C(F)(F)Cl [chlorodifluoroacetate (CDFA), chlorodifluoroacetate]
GPR81 agonist activity [1]: yes
GPR81 agonist activity ([1]; listed as chlorodifluoroacetate): showed GPR81-agonist activity

O=C(O)C(F)F [difluoroacetate]
GPR81 agonist activity [1]: showed GPR81-agonist activity

O=CO [formiate]
GPR81 agonist activity [1]: neither acetate, pyruvate, formiate, nor glyoxylate activated GPR81 and no

O=C([O-])CO.[Na+] [glycolic acid, sodium salt]
GPR81 agonist activity ([1]; listed as glycolate, sodium salt): demonstrated significant GPR81 agonist activity
GPR81 agonist activity ([1]; sodium salt): yes

O=CC(=O)O [glyoxylate]
GPR81 agonist activity [1]: neither acetate, pyruvate, formiate, nor glyoxylate activated GPR81 and no

O=C(O)c1cccnc1 [nicotinic acid]
inhibition of forskolin-induced β-gal expression in control cells not expressing a GPCR [2]: failed to inhibit
inhibition of forskolin-induced β-gal expression in HM74 expressing cells [5]: inhibited forskolin-induced β-gal expression
inhibition of forskolin-induced β-gal expression in GPR81-expressing cells [7]: failed to inhibit; also recorded: not in cells expressing GPR81
activation of GPR81 [9]: does not activate

CC(C)(O)C(=O)[O-].[Na+] [sodium hydroxyisobutyrate]
GPR81 agonist activity [1]: yes
GPR81 agonist activity ([1]; listed as hydroxy-iso-butyrate): demonstrated significant GPR81 agonist activity

O=C(O)C(Br)(Br)Br [tribromoacetate (TEA), tribromoacetate]
GPR81 agonist activity [1]: no

O=C(O)C(F)(F)F [trifluoroacetate (TFA), trifluoroacetate]
GPR81 agonist activity [1]: yes
GPR81 agonist activity ([1]; listed as trifluoroacetate): showed GPR81-agonist activity

CCC(O)C(=O)O (stereo not drawn) [α-hydroxybutyrate]
GPR81 agonist activity [1]: yes

CC(O)CC(=O)O (stereo not drawn) [β-hydroxybutyrate]
activation of rat GPR81L [10]: did not activate
activation of mouse GPR81S [11]: did not activate
activation of porcine GPR81 [12]: did not activate
activation of bovine GPR81 [13]: did not activate
GPR81 agonist activity [1]: no
activation of human GPR81 (GTPγS binding) [4]: did not activate
activation of mouse GPR81L [14]: did not activate
activation of rat GPR81S [15]: did not activate
activation of dog GPR81 [16]: did not activate
activation of monkey GPR81 [17]: did not activate

NCCCC(=O)O [γ-aminobutyric acid (GABA), γ-aminobutyric acid]
stimulation of 35S-GTPγS binding in GPR81-expressing cells / cell membranes [1]: did not stimulate
GPR81 agonist activity [1]: no
GPR81 agonist activity ([1]; listed as gamma-aminobutyric acid (GABA)): did not activate it

O=C(O)CCCO [γ-hydroxybutyric acid (GHB), γ-hydroxybutyric acid]
stimulation of 35S-GTPγS binding in GPR81-expressing cells ([1]; at 1 mM and 5 mM): significantly stimulated
stimulation of 35S-GTPγS binding in GPR81-expressing cells / cell membranes [1]: stimulates
GPR81 agonist activity [1]: yes
GPR81 agonist activity ([1]; listed as GHB): activated GPR81
35S-GTPγS binding stimulation in control cells/membranes not expressing GPR81 or any GPCR [6]: not in the control cells; also recorded: not in cells not expressing GPR81
